# Results reported in patent US9708247B2, “Modulators of the eIF2alpha pathway” (The Regents of the University of California, priority 2013, dated 2017).
# System: global translation
# Assay: Metabolic labeling (35S-methionine incorporation) in HEK293T cells
# Type: cell-based, human
# Conditions: 100 nM thapsigargin alone
# Experimental: HEK293T cells were seeded on 12 well plates, allowed to recover overnight and treated for the indicated times with the indicated compounds. The cells were subsequently switched to media lacking methionine and cysteine supplemented with the indicated compounds and 50 μCi of ^35S-methionine (Perkin Elmer) for 20 min. Cells were lysed by addition of SDS-PAGE loading buffer. Lysates were sonicated and equal amounts were loaded on SDS-PAGE gels (BioRad). The gel was dried and radioactive methionine incorporation was detected by exposure to a phosphor-screen and visualized with a Typhoon 9400 Variable Mode Imager (GE Healthcare).
row,SMILES,drop in translation [%]
1,"C/C=C(/C)C(=O)O[C@H]1C(C)=C2[C@H]([C@@H]1OC(=O)CCCCCCC)[C@@](C)(OC(C)=O)C[C@H](OC(=O)CCC)[C@@]1(O)[C@H]2OC(=O)[C@@]1(C)O [Thapsigargin, thapsigargin, reference compound]",40

# System: ATF4 luciferase reporter
# Assay: ATF4 luciferase reporter assay (Cell-luc) in HEK293T cells
# Type: cell-based, human
# Conditions: ATF4 luciferase reporter, HEK293T cells; read-out: IC50 (nM) Cell-luc
# From the text: FIGS. 1A-1C. […]
# To identify inhibitors of PERK signaling, we engineered a reporter that allows monitoring of PERK activation in living cells. To this end, we constructed a retroviral vector containing the open-reading frame of firefly luciferase fused to the 5′UTR of ATF4 mRNA (FIG. 1A), which contains two short open-reading frames (uORFs) that control ATF4 translation in a stress-dependent manner. After infection, we established a HEK293T cell line harboring the stably integrated reporter. […] This format was used to screen 106,281 compounds covering a wide chemical space. We identified 460 hits (0.43%) (FIG. 1C), which were further validated in an 8-point dose-response assay using the same reporter. We further triaged the compounds by discarding inhibitors that also affected the IRE1 branch of the UPR using an XBP1-luciferase splicing reporter. […] We next used an orthogonal secondary screen that employed a different reporter (bi-cistronic ATF4-dGFPIRES-mCherry) stably integrated into a different cell line (U20S cells). The read-out of this latter screen was microscopy-based, which allowed us to simultaneously assess acute toxicity by cell counting, further reducing the number of viable hits to 77. As a tertiary screen, we tested compounds for their ability to inhibit ER stress-elicited induction of endogenous ATF4 by Western blot analysis. Twenty-eight compounds passed this test and were analyzed further.
# ATF4 reporters were constructed by fusing the human full-length ATF4 5′-UTR (NCBI Accession BC022088.2) in front of the firefly luciferase (FLuc) or a destabilized eGFP (dEGFP) coding sequences lacking the initiator methionine.
# The ATF4-FLuc reporter was generated by cloning a PCR-product containing the ATF4 full-length 5′-UTR (from +1 position a the transcription start site down to one nucleotide after the terminator codon of the second uORF) flanked by KpnI/XhoI and BglII sites at the 5′ and 3′ ends, respectively, into the KpnI-BglII sites of pCAX-F-XBP1-Luc. The resulting construct, pCAX-ATF4-FLuc, was then digested with BamHI, blunted with T4 DNA polymerase, and then digested with XhoI. The resulting fragment was then subcloned into the retroviral expression vector pLPCX (Clontech) after digesting it with HindIII, blunting with T4 DNA polymerase and then digesting with XhoI to generate pLPCX-ATF4-FLuc (DAA-312). DAA-312 was used to produce recombinant retroviruses using standard methods and the resulting viral supernatant was used to transduce HEK293T cells, which were then subsequently selected with puromycin to generate a stable cell line employed in the primary screen.
# HEK293T cells carrying the ATF4 luciferase reporter were plated on poly-lysine coated 384 well plates (Greiner) at 30,000 cells per well. […] Luminescence was measured using One Glo (Promega) as specified by the manufacturer. […] Thus, these were considered unique to the PERK branch and were cherry-picked for further analysis.
row,IC50 [nM],SMILES
1,232,C#Cc1ccc(OCC(=O)N[C@H]2CC[C@H](NC(=O)COc3ccc(N=[N+]=[N-])cc3)CC2)cc1 [compound 957866]
2,11,O=C(COc1ccc(Cl)c([N+](=O)[O-])c1)N[C@H]1CC[C@H](NC(=O)COc2ccc(Cl)c([N+](=O)[O-])c2)CC1 [compound 957889]
3,344,N=C(COc1ccc(Cl)c(F)c1)N[C@H]1CC[C@H](NC(=O)COc2ccc(Cl)c(F)c2)CC1 [compound 957915]
4,122,N=C(COc1ccc(Cl)c(F)c1)N[C@H]1CC[C@H](NC(=O)COc2ccc(Cl)c(F)c2)CC1 [compound 957916]

# Same assay, conditions: Homo sapiens, HEK-293T, ATF4 luciferase reporter, HEK293T cells; read-out: IC50 (nM) Cell-luc
row,IC50 [nM],SMILES
1,520,C[C@@H]1NC(=O)N[C@@H]1CCCCCC(=O)NCCOCCOCCOCCn1cc(-c2ccc(OCC(=O)N[C@H]3CC[C@H](NC(=O)COc4ccc(Cl)cc4)CC3)cc2)nn1 [compound 916727]
2,1270,C[C@@H]1NC(=O)N[C@@H]1CCCCCC(=O)NCCOCCOCCOCCn1cc(-c2cc(OCC(=O)N[C@H]3CC[C@H](NC(=O)COc4ccc(Cl)cc4)CC3)ccc2Cl)nn1 [compound 916728]
3,> 10000,C#Cc1ccc(OCC(=O)N[C@H]2CC[C@H](NC(=O)COc3ccc(C4(C(F)(F)F)N=N4)cc3)CC2)cc1 [compound 916751]
4,51,O=C(COc1ccc(I)cc1)N[C@H]1CC[C@H](NC(=O)COc2ccc(I)cc2)CC1 [compound 916784]
5,158,C#Cc1ccc(OCC(=O)N[C@H]2CC[C@H](NC(=O)COc3ccc(C#C)cc3)CC2)cc1 [compound 916786]
6,200,O=C(CCCC[C@H]1SC[C@@H]2NC(=O)N[C@@H]21)NCCCCCOC(=O)CCCCCn1cc(-c2ccc(OCC(=O)N[C@H]3CC[C@H](NC(=O)COc4ccc(Cl)cc4)CC3)cc2)nn1 [compound 916846]
7,900,O=C(CCCC[C@H]1SCC2NC(=O)NC21)NCCCCCOC(=O)CCCCCn1cc(-c2cc(OCC(=O)N[C@H]3CC[C@H](NC(=O)COc4ccc(Cl)cc4)CC3)ccc2Cl)nn1 (stereo partly shown) [compound 916847]
8,> 10000,C#Cc1ccc(OCC(=O)N[C@H]2CC[C@H](NC(=O)COc3ccc(Cl)c(C4(C(F)(F)F)N=N4)c3)CC2)cc1 [compound 955278]
9,0.8,O=C(COc1ccc(Cl)c(Cl)c1)N[C@H]1CC[C@H](NC(=O)COc2ccc(Cl)c(Cl)c2)CC1 [compound 957885]
10,3,Cc1cc(OCC(=O)N[C@H]2CC[C@H](NC(=O)COc3ccc(Cl)c(C)c3)CC2)ccc1Cl [compound 957886]
11,11,O=C(COc1ccc(Cl)c(C(F)(F)F)c1)N[C@H]1CC[C@H](NC(=O)COc2ccc(Cl)c(C(F)(F)F)c2)CC1 [compound 957887]
12,0.6,O=C(COc1ccc(Cl)c(F)c1)N[C@H]1CC[C@H](NC(=O)COc2ccc(Cl)c(F)c2)CC1 [compound 957888]
13,40,N=C(COc1ccc(Cl)c(Cl)c1)N[C@H]1CC[C@H](NC(=O)COc2ccc(Cl)c(Cl)c2)CC1 [compound 957914]

row,SMILES,IC50 [nM]
1,C[Si](C)(C)C#Cc1ccc(OCC(=O)N[C@H]2CC[C@H](NC(=O)COc3ccc(C#C[Si](C)(C)C)cc3)CC2)cc1 [compound 916785],> 10000

# Same assay, conditions: Homo sapiens, HEK-293T, read-out: IC50 (nM) Cell-luc
row,SMILES,IC50 [nM]
1,O=C(COc1ccc(I)cc1)N[C@H]1CC[C@H](NC(=O)COc2ccc(C3(C(F)(F)F)NN3)cc2)CC1 [compound 916744],> 10000

# System: ATF4 luciferase reporter
# Assay: as above
# Type: cell-based, human
# Conditions: ER stressor alone, 384 well format
row,SMILES,induction in luciferase activity [fold]
1,"C/C=C(/C)C(=O)O[C@H]1C(C)=C2[C@H]([C@@H]1OC(=O)CCCCCCC)[C@@](C)(OC(C)=O)C[C@H](OC(=O)CCC)[C@@]1(O)[C@H]2OC(=O)[C@@]1(C)O [Thapsigargin, thapsigargin, reference compound]",4.9

# System: eIF2α (p-Ser51)
# Assay: AlphaScreen SureFire eIF2α(p-Ser51) assay in U2OS cells
# Type: cell-based, human
# Conditions: U2OS cells, ER stressor alone, after 120 minutes
# Experimental: U2OS cells were plated on 96 well plates and left to recover overnight. Cells were treated with either with 2 μg/ml tunicamycin or 100 nM thapsigargin in the presence or absence of 100 nM ISRIB or with ISRIB alone for the indicated and the level of eIF2α phosphorylation was determined using the AlphaScreen SureFire eIF2α(p-Ser51) Assay kit (Perkin Elmer) following the manufacturer's recommendations. Plates were read in an Envision Xcite Multilabel Reader using the standard Alpha Screen settings.
row,SMILES,increase of eIF2α phosphorylation [fold]
1,"C/C=C(/C)C(=O)O[C@H]1C(C)=C2[C@H]([C@@H]1OC(=O)CCCCCCC)[C@@](C)(OC(C)=O)C[C@H](OC(=O)CCC)[C@@]1(O)[C@H]2OC(=O)[C@@]1(C)O [Thapsigargin, thapsigargin, reference compound]",7
